The record followed here is US7504420B2, “Compounds which inhibit beta-secretase activity and methods of use” (CoMentis, Inc., priority 2005, dated 2009).

Assay [1] addresses memapsin 2 (Homo sapiens, UniProt P56817). Kind of assay: Inhibition of memapsin 2 catalytic activity (Ki). Format: biochemical. The note with it: memapsin 2, pH 4, 37° C.; read-out: M2K. How it is done:
Potency of compounds were determined by measurement of their inhibition of memapsin 2 catalytic activity toward a fluorescent substrate. […] Briefly, assays were performed at pH 4, 37° C., by pre-incubation of memapsin 2 enzyme with compound for 20 minutes. Activity measure was initiated by addition of a fluorogenic substrate FS-2 (Bachem Americas, Torrance, Calif.). Fluorescent signal increase over time was measured as a rate of hydrolysis of the peptide substrate. […]

The subject of assay [2] is Aβ production in Chinese hamster ovary cells that over-express human APP695 with the London and Swedish mutations. Kind of assay: Cellular Aβ IC50 determination (Aβ40 sandwich ELISA). The note with it: 24 h.
Description: The potency of compounds against memapsin 2 catalytic activity was determined in a cellular assay of Aβ production. […] Compounds are dissolved in DMSO to concentrations near 1 mM, and diluted into culture media to a final concentration near 4 μM (final 0.4% DMSO). Compounds were diluted serially and applied to cells in multi-well plates 48 h after seeding. Incubation was continued in 5% CO2 at 37 degrees C. for 24 h. Aliquots were removed and assayed for Aβ40 content using a sandwich ELISA (BioSource International). Amount of Aβ40 over the range of concentration of compounds, relative to control incubations, were fit to a 4-parameter IC50 model.
Setting [3] is: Cricetulus griseus, CHO, read-out: Cell, Aβ40, CHO cells over-expressing human APP695 (London and Swedish mutations), 24 h.

Read-outs that look alike come from different tables or passages of the source.

Sequence of memapsin 2 (P56817 46-501): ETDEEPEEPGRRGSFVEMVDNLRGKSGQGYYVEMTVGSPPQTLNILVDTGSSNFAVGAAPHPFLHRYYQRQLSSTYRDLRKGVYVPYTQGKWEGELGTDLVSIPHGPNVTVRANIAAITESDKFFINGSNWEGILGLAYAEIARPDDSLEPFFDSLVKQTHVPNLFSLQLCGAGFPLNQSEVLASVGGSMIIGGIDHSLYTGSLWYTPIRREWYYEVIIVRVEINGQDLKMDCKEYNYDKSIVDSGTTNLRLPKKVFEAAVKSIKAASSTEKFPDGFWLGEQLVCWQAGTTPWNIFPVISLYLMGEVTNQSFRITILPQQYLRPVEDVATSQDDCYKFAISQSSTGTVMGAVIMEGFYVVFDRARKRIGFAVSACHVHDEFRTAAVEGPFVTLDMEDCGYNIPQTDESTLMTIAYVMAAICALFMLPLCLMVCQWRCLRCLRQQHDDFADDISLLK

Take `Cc1csc(CN(C)C(=O)c2cccc(C(=O)NC(Cc3ccccc3)C(O)CNCc3cccc(OCC(C)C)c3)c2)n1` (centres unmarked) [N1-(3-hydroxy-4-(3-isobutoxybenzylamino)-1-phenylbutan-2-yl)-N3-methyl-N3-((4-methylthiazol-2-yl)methyl)isophthalamide]: in assay [1], the Ki is less than 300 nM.

For the compound `COc1cccc(CN(CC(O)C(Cc2ccccc2)NC(=O)c2cc(C(=O)NC(C)c3ccccc3)cc(N(C)S(C)(=O)=O)c2)C(=O)CCCC(=O)NN2CCN(C)CC2)c1` (centres unmarked) [N1-(3-hydroxy-4-(N-(3-methoxybenzyl)-5-(4-methylpiperazin-1-ylamino)-5-oxopentanamido)-1-phenylbutan-2-yl)-5-(N-methylmethylsulfonamido)-N3-(1-phenylethyl)isophthalamide], the IC50 in assay [2] (setting [3]) is more than 5 µM.

With `COc1cccc(CNCC(O)C(Cc2ccccc2)NC(=O)c2cccc(C(=O)N(C)Cc3coc(C)n3)c2)c1` (centres unmarked) [N1-(3-hydroxy-4-(3-methoxybenzylamino)-1-phenylbutan-2-yl)-N3-methyl-N3-((2-methyloxazol-4-yl)methyl)isophthalamide], the Ki in assay [1] was less than 300 nM.

With `COc1cccc(CN(CC(O)C(Cc2ccccc2)NC(=O)c2cc(C(=O)NC(C)c3ccccc3)cc(N(C)S(C)(=O)=O)c2)C(=O)CN(C)C)c1` (centres unmarked) [N1-(4-(2-(dimethylamino)-N-(3-methoxybenzyl)acetamido)-3-hydroxy-1-phenylbutan-2-yl)-5-(N-methylmethylsulfonamido)-N3-(1-phenylethyl)isophthalamide], the IC50 in assay [2] (setting [3]) lay within 1 to 5 µM.

`COc1cccc(CNCC(O)C(Cc2ccccc2)NC(=O)c2cc(C(=O)NC(C)C3COC4OCCC43)cc(N(C)S(C)(=O)=O)c2)c1` (centres unmarked) [N1-(1-(hexahydrofuro[2,3-b]furan-3-yl)ethyl)-N3-(3-hydroxy-4-(3-methoxybenzylamino)-1-phenylbutan-2-yl)-5-(N-methylmethylsulfonamido)isophthalamide]: the Ki in assay [1] is more than 501 nM.

As to `COc1ccccc1CN1CCC(CNCC(O)C(Cc2ccccc2)NC(=O)c2cc(C(=O)NC(C)c3ccccc3)cc(N(C)S(C)(=O)=O)c2)CC1` (centres unmarked) [N1-(3-hydroxy-4-((1-(2-methoxybenzyl)piperidin-4-yl)methylamino)-1-phenylbutan-2-yl)-5-(N-methylmethylsulfonamido)-N3-(1-phenylethyl)isophthalamide], the IC50 in assay [2] (read-out: Cell, Aβ40, CHO cells over-expressing human APP695 (London and Swedish mutations)) lay in the range of 1 to 5 µM.

Consider `COc1cccc(CN(CC(O)C(Cc2ccccc2)NC(=O)c2cc(C(=O)NC(C)c3ccccc3)cc(N(C)S(C)(=O)=O)c2)C(=O)CCCC(=O)NCc2cccnc2)c1` (centres unmarked) [N1-(3-hydroxy-4-(N-(3-methoxybenzyl)-5-oxo-5-(pyridin-3-ylmethylamino)pentanamido)-1-phenylbutan-2-yl)-5-(N-methylmethylsulfonamido)-N3-(1-phenylethyl)isophthalamide], for which the IC50 in assay [2] (setting [3]) is more than 5 µM.

On to `COc1cccc(CNCC(O)C(Cc2ccccc2)NC(=O)c2cccc(C(=O)N(Cc3ccccc3)Cc3nc(C)cs3)c2)c1` (centres unmarked) [N1-benzyl-N3-(3-hydroxy-4-(3-methoxybenzylamino)-1-phenylbutan-2-yl)-N1-((4-methylthiazol-2-yl)methyl)isophthalamide], for which, in assay [1], the Ki is less than 300 nM.

Take `CCOc1cccc(CNCC(O)C(Cc2ccccc2)NC(=O)c2cccc(C(=O)N(C)Cc3nc(C)cs3)c2)c1` (centres unmarked) [N1-(4-(3-ethoxybenzylamino)-3-hydroxy-1-phenylbutan-2-yl)-N3-methyl-N3-((4-methylthiazol-2-yl)methyl)isophthalamide]: the Ki in assay [1] is less than 300 nM.

As for `CC(NC(=O)c1cc(C(=O)NC(Cc2ccccc2)C(O)CNCc2cn(COCC[Si](C)(C)C)cn2)cc(N(C)S(C)(=O)=O)c1)c1ccccc1` (centres unmarked) [N1-(3-hydroxy-1-phenyl-4-((1-((2-(trimethylsilyl)ethoxy)methyl)-1H-imidazol-4-yl)methylamino)butan-2-yl)-5-(N-methylmethylsulfonamido)-N3-(1-phenylethyl)isophthalamide], the Ki in assay [1] was less than 300 nM.

With `Cc1cc(CNCC(O)C(Cc2ccccc2)NC(=O)c2cc(C(=O)NC(C)c3ccccc3)cc(N(C)S(C)(=O)=O)c2)[nH]n1` (centres unmarked) [N1-(3-hydroxy-4-((3-methyl-1H-pyrazol-5-yl)methylamino)-1-phenylbutan-2-yl)-5-(N-methylmethylsulfonamido)-N3-(1-phenylethyl)isophthalamide], the Ki in assay [1] is more than 501 nM.

For the compound `COc1cccc(C(C)NCC(O)C(Cc2ccccc2)NC(=O)c2cccc(C(=O)N(C)Cc3nc(C)cs3)c2)c1` (centres unmarked) [N1-(3-hydroxy-4-(1-(3-methoxyphenyl)ethylamino)-1-phenylbutan-2-yl)-N3-methyl-N3-((4-methylthiazol-2-yl)methyl)isophthalamide], the Ki in assay [1] is less than 300 nM.

With `COc1cccc(CNCC(O)C(Cc2ccccc2)NC(=O)c2cccc(C(=O)N(Cc3nc(C)cs3)C3CCCC3)c2)c1` (centres unmarked) [N1-cyclopentyl-N3-(3-hydroxy-4-(3-methoxybenzylamino)-1-phenylbutan-2-yl)-N1-((4-methylthiazol-2-yl)methyl)isophthalamide], the Ki in assay [1] was less than 300 nM.

Regarding `Cc1csc(CN(C)C(=O)c2cccc(C(=O)NC(Cc3ccccc3)C(O)CNCc3ccccc3)c2)n1` (centres unmarked) [N1-(4-(benzylamino)-3-hydroxy-1-phenylbutan-2-yl)-N3-methyl-N3-((4-methylthiazol-2-yl)methyl)isophthalamide], in assay [1], the Ki is more than 501 nM.

As to `COc1cccc(CNCC(O)C(Cc2ccccc2)NC(=O)c2cccc(C(=O)N(Cc3nc(C)cs3)C3CCCCC3)c2)c1` (centres unmarked) [N1-cyclohexyl-N3-(3-hydroxy-4-(3-methoxybenzylamino)-1-phenylbutan-2-yl)-N1-((4-methylthiazol-2-yl)methyl)isophthalamide], in assay [1], the Ki fell in the range of 301 to 500 nM.

With `CC(NC(=O)c1cc(C(=O)NC(Cc2ccccc2)C(O)CNCC2CCCN2C(C)C)cc(N(C)S(C)(=O)=O)c1)c1ccccc1` (centres unmarked) [N1-(3-hydroxy-4-((1-isopropylpyrrolidin-2-yl)methylamino)-1-phenylbutan-2-yl)-5-(N-methylmethylsulfonamido)-N3-(1-phenylethyl)isophthalamide], in assay [1], the Ki was more than 501 nM.

Turning to `COc1cccc(CNCC(O)C(Cc2ccccc2)NC(=O)c2cccc(C(=O)N(C)Cc3cnccn3)c2)c1` (centres unmarked) [N1-(3-hydroxy-4-(3-methoxybenzylamino)-1-phenylbutan-2-yl)-N3-methyl-N3-(pyrazin-2-ylmethyl)isophthalamide], in assay [1], the Ki was more than 501 nM.

With `COc1cccc(CNCC(O)C(Cc2ccccc2)NC(=O)c2cccc(C(=O)N(Cc3nc(C)cs3)CC(C)C)c2)c1` (centres unmarked) [N1-(3-hydroxy-4-(3-methoxybenzylamino)-1-phenylbutan-2-yl)-N3-isobutyl-N3-((4-methylthiazol-2-yl)methyl)isophthalamide], in assay [1], the Ki was less than 300 nM.

For `COc1cccc(CNCC(O)C(Cc2ccccc2)NC(=O)c2cc(C(=O)NC(C)c3cccc(F)c3)cc(N(C)S(C)(=O)=O)c2)c1` (centres unmarked) [N1-(1-(3-fluorophenyl)ethyl)-N3-(3-hydroxy-4-(3-methoxybenzylamino)-1-phenylbutan-2-yl)-5-(N-methylmethylsulfonamido)isophthalamide], in assay [1], the Ki is less than 300 nM.

For the compound `Cc1ccc(CNCC(O)C(Cc2ccccc2)NC(=O)c2cccc(C(=O)N(C)Cc3nc(C)cs3)c2)cc1` (centres unmarked) [N1-(3-hydroxy-4-(4-methylbenzylamino)-1-phenylbutan-2-yl)-N3-methyl-N3-((4-methylthiazol-2-yl)methyl)isophthalamide], in assay [1], the Ki was more than 501 nM.
